{"source": "patent US8242251B2", "about": "“Unsymmetrical cyanine dimer compounds and their application” (Life Technologies Corporation, priority 2003, dated 2012)", "key": {"[1]": {"tested_on": "RNA versus DNA", "assay": "Screening of fluorescence properties and relative fluorescence enhancement with RNA versus DNA (Table 3)", "type": "binding", "details": "for Fluorescence Enhancement Ratio (RNA/DNA): fluorescence enhancement when associated with RNA to that when associated with DNA"}, "[2]": {"tested_on": "Bovine pulmonary arterial endothelial cells", "assay": "Nucleic acid binding on RNase and DNase treated formaldehyde-fixed eukaryotic cells (Example 39)", "type": "cell-based", "details": "Compound 6 687 nM, Compound 19 1 μM", "method": "(§1) Bovine pulmonary arterial endothelial cells were grown in media for one day after plating and then fixed fifteen minutes in 4% paraformaldehyde. Cells were washed 3×5 minutes in PBT (0.05M phosphate-buffered saline (PBS) containing 0.1% Triton X-100) and then treated with RNase (from Roche, at 1:500 dilution) or DNase (from Promega, at 1:100 dilution), or both for 2 hours at 37° C. Cells were washed again for 3×5 minutes in PBT and then labeled with Compound 6 at 687 nM concentration or Compound 19 at 1 μM concentration in PBS for 20 minutes. Cells were washed 3×10 minutes in PBS and mounted on microscope slides in ProLong antifade mounting medium (Molecular Probes, Inc.). After the mountant had hardened, slides were examined on a Nikon Eclipse 800 upright fluorescent microscope and imaged with a FITC filter set, a Princeton Instrument MicroMax cooled CCD camera, and Universal Imaging MetaMorph imaging software. […] See, FIG. 5."}, "[3]": {"tested_on": "Bovine pulmonary arterial endothelial cells", "assay": "Nucleic acid binding after RNase and DNase on methanol-fixed eukaryotic cells (Example 38)", "type": "cell-based", "details": "control to test the activity of the DNase; printed as treated with RNase", "method": "as §1, with “ten” for “fifteen”, “100% methanol at −20° C.” for “4% paraformaldehyde.”, “dilution)” for “dilution), or both”, “concentration” for “concentration or Compound 19 at 1 μM concentration in PBS”, “medium.” for “medium (Molecular Probes, Inc.).”, “4.” for “5.”"}, "[4]": {"tested_on": "Gram-positive (Staphylococcus aureus) and Gram-negative (Eshcerichia coli) bacteria", "assay": "Rifampicin-depletion of bacterial RNA, flow cytometry and microplate reader (Example 37)", "type": "cell-based", "details": "25 μg/mL rifampicin one hour; compound 0.25, 0.5 or 1 μM, 10-15 minutes", "method": "Gram-positive (Staphylococcus aureus) and Gram-negative (Eshcerichia coli) bacteria in growth medium were treated with 25 μg/mL rifampicin for one hour. Treated and untreated bacteria were counted, diluted to 1×10^7 bacteria/mL in 0.85% NaCl, and 1 mL aliquots incubated with 0.25 μM, 0.5 μM, or 1 μM Compound 6 or Compound 9 for 10-15 minutes protected from light. The samples were analyzed by flow cytometry and then 100 μL volumes were transferred to a microplate in triplicate and analyzed by a microplate reader. The fluorescence intensity was corrected against the dye in solution, which was weakly fluorescent."}, "[5]": {"tested_on": "Bovine pulmonary arterial endothelial cells", "assay": "Cell permeability and nucleic acid label pattern with a concentration series in live cells (Example 43)", "type": "cell-based", "method": "Bovine pulmonary arterial endothelial cells were grown in media for one day after plating on coverslips, then labeled with 50 nM MitoTracker Red CMXRos (Molecular Probes, Inc., M7512) in Hank's balanced salt solution (HBSS) with HEPES for general mitochondrial labeling. After washing in HBSS, cells were then labeled with Compound 1 at various concentrations ranging from 100 nM up to 10 μM in media for 20 minutes at 37°. Cells were washed well with HBSS. Coverslips were examined mounted in warm HBSS on a Nikon Eclipse 800 upright fluorescent microscope and imaged with a FITC filter set, a Princeton Instruments MicroMax cooled CCD camera, and Universal Imaging MetaMorph imaging software. […] The mtDNA signal was localized within mitochondria, as evidenced by MitoTracker Red labeling."}}}
{"smiles": "C[n+]1c(/C=C/C=C2/C=CN(c3ccccc3)C(N3CCN(C4=C/C(=C\\C=C\\c5sc6ccccc6[n+]5C)C=CN4c4ccccc4)CC3)=C2)sc2ccccc21", "note": "[Compound 18]", "values": [{"measurement": "Fluorescence Enhancement Ratio (RNA/DNA)", "setting": "[1]", "result": 1.3}]}
{"smiles": "COc1ccc2c(c1)N(c1ccccc1)C(N1CCN(C3=C/C(=C\\c4sc5ccccc5[n+]4C)c4ccc(OC)cc4N3c3ccccc3)CC1)=C/C2=C\\c1sc2ccccc2[n+]1C.[I-].[I-]", "note": "[Compound 19]", "values": [{"measurement": "Fluorescence Enhancement Ratio (RNA/DNA)", "setting": "[1]", "result": 4.9}, {"measurement": "cytoplasmic label after DNase", "setting": "[2]", "result": "not reduced at all"}, {"measurement": "cytoplasmic label after RNase", "setting": "[2]", "result": "not reduced at all"}, {"measurement": "labeling of nucleoli after RNase", "setting": "[2]", "result": "eliminated"}, {"measurement": "nuclear labeling after DNase", "setting": "[2]", "result": "not DNase"}, {"measurement": "nuclear labeling after RNase", "setting": "[2]", "result": "significantly reduced with RNase"}, {"measurement": "nucleolar intensity after DNase", "setting": "[2]", "result": "significantly reduced"}]}
{"smiles": "C[n+]1c(/C=C2\\C=C(N3CCNCCN(C4=C/C(=C\\c5sc6ccccc6[n+]5C)c5ccccc5N4c4ccccc4)CCNCC3)N(c3ccccc3)c3ccccc32)sc2ccccc21.[Cl-].[Cl-]", "note": "[Compound 15]", "values": [{"measurement": "Fluorescence Enhancement Ratio (DNA/RNA)", "setting": "[1]; fluorescence enhancement when associated with DNA to that when associated with RNA", "result": 3.7}]}
{"smiles": "CN1/C(=C\\c2c/c(=N/C3CCC(/N=c4/cc(/C=C5/Sc6ccccc6N5C)c5ccccc5n4-c4ccccc4)CC3)n(-c3ccccc3)c3ccccc23)Sc2ccccc21", "note": "(stereo not drawn) [Compound 8]", "values": [{"measurement": "Fluorescence Enhancement Ratio (RNA/DNA)", "setting": "[1]", "result": 4.9}]}
{"smiles": "N=C(N)c1ccc(-c2cc3ccc(C(=N)N)cc3[nH]2)cc1", "note": "[DAPI, reference compound]", "values": [{"measurement": "label intensity of DNA label control after nuclease treatment", "setting": "[3]", "result": "significant decline in label intensity"}]}
{"smiles": "C[n+]1c(/C=C2\\C=C(Sc3nnc(SC4=C/C(=C\\c5sc6ccccc6[n+]5C)c5ccccc5N4c4ccccc4)s3)N(c3ccccc3)c3ccccc32)sc2ccccc21.[Cl-].[Cl-]", "note": "[Compound 7]", "values": [{"measurement": "Fluorescence Enhancement Ratio (RNA/DNA)", "setting": "[1]", "result": 2.3}]}
{"smiles": "CN1/C(=C\\c2c/c(=N/N3CCN(/N=c4/cc(/C=C5/Sc6ccccc6N5C)c5ccccc5n4-c4ccccc4)CC3)n(-c3ccccc3)c3ccccc23)Sc2ccccc21", "note": "[Compound 9]", "values": [{"measurement": "Fluorescence Enhancement Ratio (RNA/DNA)", "setting": "[1]", "result": 1.7}, {"measurement": "fluorescent signal of rifampicin treated versus untreated bacteria", "setting": "[4]", "result": "decrease in fluorescent signal after removal of mRNA"}]}
{"smiles": "C[n+]1c(/C=C2\\C=C(N(CCC[N+](C)(C)C)CCC[N+](C)(C)C)N(CCCCCCCCCCN3C(N(CCC[N+](C)(C)C)CCC[N+](C)(C)C)=C/C(=C\\c4sc5ccccc5[n+]4C)c4ccccc43)c3ccccc32)sc2ccccc21.Cl.Cl", "note": "[Compound 13]", "values": [{"measurement": "Fluorescence Enhancement Ratio (RNA/DNA)", "setting": "[1]", "result": 2.5}]}
{"smiles": "CN1/C(=C\\c2ccn(-c3ccccc3)/c(=N\\N3CCN(/N=c4/cc(/C=C5/Sc6ccccc6N5C)c5ccccc5n4-c4ccccc4)CC3)c2)Sc2ccccc21", "note": "[Compound 25]", "values": [{"measurement": "Fluorescence Enhancement Ratio (RNA/DNA)", "setting": "[1]", "result": 5.6}]}
{"smiles": "C[n+]1c(/C=C2\\C=C(SCCCCCCCCCSC3=C/C(=C\\c4sc5ccccc5[n+]4C)c4ccccc4N3c3ccccc3)N(c3ccccc3)c3ccccc32)sc2ccccc21", "note": "[Compound 1]", "values": [{"measurement": "Fluorescence Enhancement Ratio (RNA/DNA)", "setting": "[1]", "result": 1.0}, {"measurement": "staining pattern at 1 μM", "setting": "[5]; 20 minutes at 37°", "result": "nuclear labeling was seen as well as mtDNA"}, {"measurement": "staining pattern at 3 μM or higher", "setting": "[5]; 20 minutes at 37°", "result": "mtDNA labeling was lost, replaced with ubiquitous cytoplasmic labeling and strong nuclear labeling"}, {"measurement": "staining pattern at 100 nM to 500 nM", "setting": "[5]; 20 minutes at 37°, MitoTracker Red co-label", "result": "mitochondrial DNA (mtDNA), with no nuclear label, or cytoplasmic background"}, {"measurement": "concentration at which mitochondrial morphology was disrupted", "setting": "[5]; as evidenced with MitoTracker Red", "result": "≥ 3", "unit": "μM"}]}
